Tests used:
[1] = Human liver microsome stability (Assays #1-#4); type: in vitro ADME; details: Assay #1, substrate 1 μM, protein 0.1 mg/mL, 37° C.; for half-life at 1 μM: human, liver microsomes
Procedure: The results for Examples 1 and 3 were t112=87 and 32 minutes with 78% and 60% remaining after 30 minutes, respectively, compared to shorter half-lives and lesser amounts left for Examples 2 and 4-6 (see Note 6 for conditions).
Under similar in vitro human liver microsome preparation stability assay conditions at 37° C. for 30 or 60 minutes in a separate head-to-head experiments (Assay #2 and #3) (see Note 6 for conditions) with Examples 1 and 3 and the comparator Compound #290 from U.S. Pat. No. 5,591,737, the amounts left after the 30 minute incubation (with […] microsome protein vs 0.1 mg/mL for Assay #3) were 67, 99 and 79% and for the 60 minute incubation were 94, 73 and 77%, respectively. Similarly, in a third repeat assay (Assay #4 with—NADPH controls) (see Note 6 for conditions), 90 and 72% were remaining for Example 1 and the comparator compound, respectively. […]
Note 6: Human Liver Microsome Assay # 1-3 conditions. • Assay experiment #1: Substrate concentration=1 μM; Protein concentration=0.1 mg/mL; incubation time=30 minutes at 37° C. • Assay experiment #2: Substrate concentration=1 μM; Protein concentration 0.1 mg/mL; incubation time=30 minutes at 37° C. • Assay experiment #3: Substrate concentration=1 μM; Protein concentration=0.1 mg/mL; incubation time=60 minutes at 37° C. • Assay experiment #4: Substrate concentration=1 μM; Protein concentration=1.0 mg/mL; incubation time=60 minutes at 37° C.

[2] = target: T1, Human Leukocyte Elastase (HLE) (Homo sapiens, UniProt P08246); assay: HLE time-dependent inactivation assay, PMN cell lysate source of HLE; type: biochemical; details: 3 nM, inhibitor 26.5 nM, substrate 1 mM
T1 construct: The PMN lysates were prepared by isolating human neutrophils from whole blood; from tissue; host or cells: human neutrophils (PMN) isolated from whole blood, lysed by sonication in PBS
T1 sequence (P08246 30-267): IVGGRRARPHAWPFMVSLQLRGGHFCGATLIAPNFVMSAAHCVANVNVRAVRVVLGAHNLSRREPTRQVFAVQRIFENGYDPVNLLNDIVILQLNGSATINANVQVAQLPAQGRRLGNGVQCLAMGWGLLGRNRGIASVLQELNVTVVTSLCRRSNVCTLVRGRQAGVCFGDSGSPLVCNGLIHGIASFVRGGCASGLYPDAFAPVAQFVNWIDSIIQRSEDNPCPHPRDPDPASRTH
Procedure: (§1) As exemplified in Table 1, the Examples 1-6 of this application were determined to be potent, mechanism-based inactivators of Human Leukocyte Elastase (HLE) in two different in vitro time-dependent incubation assays. The two assays are described at the end of this Biological Data Section in Note 1. See the literature references in Note 2 for a discussion of the mechanism for this type of beta-lactam inactivation of HLE. Two sources of enzyme were used; either purified elastase or crude extracts of human polymorphonuclear leukocytes (PMN) containing elastase activity. […] For the compound of Example 1, the results were 638,000 M^−1 sec^−1 (average of n=3) and 809,000 M^−1 sec^−1 (n=4), respectively, and for Example 3, 804,000 M^−1 sec^−1 (average of n=4) and 952,000 M^−1 sec^−1 (n=5). […] Note that in this assay, head-to-head comparisons are particularly valuable.
(§2) Note 1: Enzyme Assays for the Inhibition of Human Polymorphonuclear Leukocyte Elastase Via Hydrolysis of N-Methyoxysuccinyl-alanyl-alanyl-prolylalanine-p-nitroanilide Reagent.
(§3) Prepare substrate by first dissolving in DMSO to 30 mg/ml (50 mM). Further dilute the substrate to 10 mM and add 25 μl to a final volume of 250 μl for a final concentration of 1 mM in the assay.
(§4) Prepare the enzyme in TES Buffer (0.045M TES (N-tris[hydroxymethyl]methyl-2-mino-ethanesulfonic acid), 0.45 M NaCl, pH 7.5.). Two sources of enzyme were used; either crude extracts of human polymorphonuclear leukocytes (PMN) containing elastase activity or purified elastase. The PMN lysates were prepared by isolating human neutrophils from whole blood after dextran sedimentation, ficoll density separation and red blood cell lysis. The neutrophils were lysed in PBS with sonciation and the concentration of active enzyme was determined by utilizing a standard curve of purified enzyme. For the purified elastase, the enzyme was resuspended at 10 mg/ml (˜340 μM) in 0.02M NaOAc, 50% glycerol. For both the PMN lysate and purified enzyme, a further dilution of enzyme was made to 30 nM and 25 μl was added to a final volume of 250 μl. The final concentration of enzyme in the assay was 3 nM.
(§5) The inhibitors to be tested were dissolved in DMSO at 10 mM. Directly before use, the inhibitors were further diluted into TES Buffer to 265 nM and […] was added to a final volume of 250 μl. The final concentration of inhibitor in the assay was 26.5 nM.
(§6) In a 96-well plate (flat bottom, polystyrene) 175 μl TES Buffer, 25 μl substrate, 25 μl inhibitor and 25 μl enzyme were added. After thoroughly mixing, the plate was then read in a spectrophotometer at 410 nm for 30 minutes counting every 10 seconds. Results were expressed as Kinact/Ki which is the second order rate constant in per mole per second for inactivation of the enzyme.

[3] = target: T1, Human Leukocyte Elastase (HLE); assay: HLE time-dependent inactivation assay, purified elastase; type: biochemical; details: purified elastase 3 nM; inhibitor 26.5 nM; substrate 1 mM
Procedure: as §1, §2, §3, §4, §5, §6

% Left @ 30 min [1] [%] | half-life at 1 μM [1] [min] | kinact/KI [2] [M⁻¹ s⁻¹] | kinact/KI [3] [M⁻¹ s⁻¹] | SMILES
51 | 25 | 427000 | 290000 | CCC[C@@H](NC(=O)N1C(=O)C(CC)(CC)[C@@H]1Oc1ccc(C(=O)N(C)CCN(C)C)cc1)c1ccc(C(F)(F)F)cc1 [Example 4, 2-(S)-[4-(((2-(Dimethylamino)ethyl)methylamino)carbonyl)phenoxy]-3,3-diethyl-N-[1-(R)-(4-(trifluoromethyl)phenyl)butyl]-4-oxo-1-azetidinecarboxamide]
31 | 30 | 375000 | – | CCC[C@@H](NC(=O)N1C(=O)C(CC)(CC)[C@@H]1Oc1ccc(C(=O)N(CC)CCN(CC)CC)cc1)c1ccc(C(F)(F)F)cc1 [Example 5, 2-(S)-[4-(((2-(Diethylamino)ethyl)ethylamino)carbonyl)phenoxy]-3,3-diethyl-N-[1-(R)-(4-(trifluoromethyl)phenyl)butyl]-4-oxo-1-azetidinecarboxamide]

Source: patent US20100216761A1, “NOVEL AZETIDINONES USEFUL AS INHIBITORS OF ELASTASE” (priority 2007, published 2010)
